“And” between values parts separate entries of the source, which are not always exact repeats. Equal entries are not always repeated. Toxic doses and inconclusive results are not listed.

This assay has as its system B6C3F1 mice, ip Sarcoma M5076, median survival T/C. The assay can be described thus: NCI In Vivo Anticancer Drug Screen. Data for tumor model Sarcoma M5076 (intraperitoneal) in B6C3F1 mice. The settings on record: endpoint: median survival time, higher = longer survival. The essentials: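 Survival measured in treated (T) and vehicle control (C) mice with transplantable tumour; result given as T divided by C.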

[1] abbreviates: dose: 100.0 mg/kg/injection, schedule: Q04DX004 (ip), vehicle: saline with Tween-80.
Where [2] appears, read: dose: 200.0 mg/kg/injection, schedule: Q04DX004 (ip), vehicle: saline with Tween-80.
[3] abbreviates: dose: 400.0 mg/kg/injection, schedule: Q04DX004 (ip), vehicle: saline with Tween-80.
Where [4] appears, read: dose: 800.0 mg/kg/injection, schedule: Q04DX004 (ip), vehicle: saline with Tween-80.
[5] abbreviates: dose: 50.0 mg/kg/injection, schedule: Q04DX004 (ip), vehicle: Klucel (hydroxypropylcellulose) (HPC).
[6] abbreviates: dose: 100.0 mg/kg/injection, schedule: Q04DX004 (ip), vehicle: Klucel (hydroxypropylcellulose) (HPC).
Where [7] appears, read: dose: 200.0 mg/kg/injection, schedule: Q04DX004 (ip), vehicle: Klucel (hydroxypropylcellulose) (HPC).
Where [8] appears, read: dose: 400.0 mg/kg/injection, schedule: Q04DX004 (ip), vehicle: Klucel (hydroxypropylcellulose) (HPC).
The mark [9] stands for this setting: dose: 50.0 mg/kg/injection, schedule: Q04DX004 (ip), vehicle: saline.
Where [10] appears, read: dose: 25.0 mg/kg/injection, schedule: Q04DX004 (ip), vehicle: Klucel (hydroxypropylcellulose) (HPC).
Setting [11] is: dose: 50.0 mg/kg/injection, schedule: Q04DX004 (ip), vehicle: suspension in saline.
The mark [12] stands for this setting: dose: 100.0 mg/kg/injection, schedule: Q04DX004 (ip), vehicle: suspension in saline.
Setting [13] is: dose: 200.0 mg/kg/injection, schedule: Q04DX004 (ip), vehicle: suspension in saline.
[14] abbreviates: dose: 25.0 mg/kg/injection, schedule: Q04DX004 (ip), vehicle: saline with Tween-80.
Where [15] appears, read: dose: 50.0 mg/kg/injection, schedule: Q04DX004 (ip), vehicle: saline with Tween-80.
The mark [16] stands for this setting: dose: 37.5 mg/kg/injection, schedule: Q04DX004 (ip), vehicle: saline with Tween-80.
Where [17] appears, read: dose: 75.0 mg/kg/injection, schedule: Q04DX004 (ip), vehicle: saline with Tween-80.
Setting [18] is: dose: 150.0 mg/kg/injection, schedule: Q04DX004 (ip), vehicle: saline with Tween-80.

Consider `O=c1[nH]c(=O)n(C2CC(O)C(CO)O2)cc1C(F)(F)F` (centres undefined), for which the T/C by setting is: under setting [1], 113 % of control and 114 % of control; under setting [2], 109 % of control and 113 % of control; under setting [3], 110 % of control and 112 % of control; under setting [4], 116 % of control; (dose: 1600.0 mg/kg/injection, schedule: Q04DX004 (ip), vehicle: saline with Tween-80) 116 % of control.
For the molecule `COc1cc([C@@H]2c3cc4c(c(O)c3C[C@H]3COC(=O)[C@@H]32)OCO4)cc(OC)c1OC`, the T/C by setting is: (dose: 4.8 mg/kg/injection, schedule: Q04DX004 (ip), vehicle: suspension in saline) 159 % of control; (dose: 8.0 mg/kg/injection, schedule: Q04DX004 (ip), vehicle: suspension in saline) 163 % of control; (dose: 13.3 mg/kg/injection, schedule: Q04DX004 (ip), vehicle: suspension in saline) 155 % of control.
For the molecule `COc1cccc(C2NC(=S)NC(=O)C2C#N)c1` (centres undefined), the T/C is 99 % of control under setting [5], 99 % of control under setting [6], 95 % of control under setting [7] and 97 % of control under setting [8].
For `CC1Oc2cc3c(-c4c(O)cc(O)c5c(O)c6c(cc45)OC(C)C(C)C6=O)c(O)cc(O)c3c(O)c2C(=O)C1C` (centres undefined), the T/C was 102 % of control (dose: 0.62 mg/kg/injection, schedule: Q01DX009 (ip), vehicle: suspension in saline); 109 % of control (dose: 1.25 mg/kg/injection, schedule: Q01DX009 (ip), vehicle: suspension in saline); 151 % of control (dose: 1.25 mg/kg/injection, schedule: Q04DX004 (ip), vehicle: suspension in saline); 97 % of control and 115 % of control (dose: 1.8 mg/kg/injection, schedule: Q04DX004 (ip), vehicle: suspension in saline); 107 % of control and 114 % of control (dose: 3.0 mg/kg/injection, schedule: Q04DX004 (ip), vehicle: suspension in saline); 123 % of control (dose: 8.33 mg/kg/injection, schedule: Q04DX004 (ip), vehicle: suspension in saline).
Take `COc1cccc2sc(-n3c(C)nc4ccccc4c3=O)nc12`: the T/C (dose: 31.25 mg/kg/injection, schedule: Q04DX004 (ip), vehicle: Klucel (hydroxypropylcellulose) (HPC)) is 109 % of control; the T/C (dose: 62.5 mg/kg/injection, schedule: Q04DX004 (ip), vehicle: Klucel (hydroxypropylcellulose) (HPC)) is 94 % of control; the T/C (dose: 125.0 mg/kg/injection, schedule: Q04DX004 (ip), vehicle: Klucel (hydroxypropylcellulose) (HPC)) is 93 % of control; the T/C (dose: 250.0 mg/kg/injection, schedule: Q04DX004 (ip), vehicle: Klucel (hydroxypropylcellulose) (HPC)) was 94 % of control; the T/C (dose: 500.0 mg/kg/injection, schedule: Q04DX004 (ip), vehicle: Klucel (hydroxypropylcellulose) (HPC)) is 95 % of control.
In the case of `CC(NNC(=S)N(C)C1CCCCC1)c1cc2ccccc2cn1` (centres undefined), the T/C by setting is: under setting [9], 102 % of control; (dose: 100.0 mg/kg/injection, schedule: Q04DX004 (ip), vehicle: saline) 105 % of control; (dose: 200.0 mg/kg/injection, schedule: Q04DX004 (ip), vehicle: saline) 111 % of control.
For `O=C1CN(CO)C(=O)N1CO`, the T/C runs as follows: under setting [10], 100 % of control; under setting [5], 104 % of control; under setting [6], 97 % of control; under setting [7], 114 % of control; under setting [8], 114 % of control.
For the molecule `CNc1nc(N(C)C)nc(N(C)C)n1`, the T/C was 92 % of control and 100 % of control (dose: 25.0 mg/kg/injection, schedule: Q04DX004 (ip), vehicle: suspension in saline); 102 % of control and 109 % of control under setting [11]; 113 % of control and 114 % of control under setting [12]; 117 % of control and 120 % of control under setting [13].
As for `COc1cc2c(c3c1c(=O)c1cccc(F)c1n3C)C=CC(C)(C)O2`, the T/C is, setting by setting: under setting [5], 112 % of control; under setting [6], 120 % of control.
On to `CC(C)(C)CCC(Br)CBr` (centres undefined), for which the T/C (dose: 3.12 mg/kg/injection, schedule: Q04DX004 (ip), vehicle: saline) was 98 % of control; the T/C (dose: 3.12 mg/kg/injection, schedule: Q04DX004 (ip), vehicle: suspension in saline) is 95 % of control; the T/C (dose: 6.25 mg/kg/injection, schedule: Q04DX004 (ip), vehicle: saline) is 102 % of control; the T/C (dose: 6.25 mg/kg/injection, schedule: Q04DX004 (ip), vehicle: suspension in saline) is 97 % of control; the T/C (dose: 12.5 mg/kg/injection, schedule: Q04DX004 (ip), vehicle: saline) was 99 % of control; the T/C (dose: 12.5 mg/kg/injection, schedule: Q04DX004 (ip), vehicle: suspension in saline) was 99 % of control. Also, the T/C reads like this: (dose: 25.0 mg/kg/injection, schedule: Q04DX004 (ip), vehicle: saline) 100 % of control; under setting [9], 100 % of control; under setting [11], 100 % of control and 106 % of control; under setting [12], 111 % of control; under setting [13], 106 % of control; (dose: 400.0 mg/kg/injection, schedule: Q04DX004 (ip), vehicle: suspension in saline) 93 % of control.
On to `Cc1ccc2c(c1)n([O-])c1cc(Cl)ccc1[n+]2=O`, for which the T/C by setting is: under setting [14], 104 % of control; under setting [15], 113 % of control; under setting [1], 109 % of control; (dose: 144.0 mg/kg/injection, schedule: Q04DX004 (ip), vehicle: saline with Tween-80) 120 % of control.
Take `COc1ccc2c(n1)Sc1nc3ccccc3nc1N2`: the T/C was 92 % of control under setting [16], 98 % of control under setting [17] and 87 % of control under setting [18].
For `Cc1ccc2c(c1)C1(C)OC(C=CC1=O)O2` (centres undefined), the T/C by setting is: under setting [10], 96 % of control; under setting [5], 103 % of control.
`N#CC1C(=O)NC(=O)C(C#N)C1c1ccc(C2C(C#N)C(=O)NC(=O)C2C#N)cc1` (centres undefined): the T/C is, setting by setting: under setting [5], 100 % of control; under setting [6], 97 % of control; under setting [7], 100 % of control; under setting [8], 96 % of control; (dose: 800.0 mg/kg/injection, schedule: Q04DX004 (ip), vehicle: Klucel (hydroxypropylcellulose) (HPC)) 100 % of control.
With `Cc1nc2cc[nH]n2c(=O)c1CCc1ccccc1`, the T/C under setting [15] is 107 % of control, the T/C under setting [1] is 94 % of control and the T/C under setting [2] is 96 % of control.
Take `O=C(CN1CCC(O)(c2ccc(F)cc2)CC1)N1CCN(C/C=C/c2ccccc2)CC1`: the T/C was 103 % of control under setting [16]; 100 % of control under setting [17]; 102 % of control under setting [18]; 94 % of control (dose: 300.0 mg/kg/injection, schedule: Q04DX004 (ip), vehicle: saline with Tween-80); 95 % of control (dose: 600.0 mg/kg/injection, schedule: Q04DX004 (ip), vehicle: saline with Tween-80).
With `CCOC(=O)CC1(C)SCCN1C(=O)OCC` (centres undefined), the T/C reads like this: under setting [15], 114 % of control; under setting [1], 114 % of control; under setting [2], 122 % of control; under setting [3], 103 % of control; under setting [4], 98 % of control.
On to `CCCC1CCC(=C2C(=O)CCC2=O)O1` (centres undefined), for which the T/C reads like this: under setting [14], 101 % of control; under setting [15], 95 % of control; under setting [1], 96 % of control.

Values taken from PubChem BioAssay AID292 (DTP/NCI, 2004).
